In patent publication EP3539977B1, “ENZYMES WITH CHLOROGENIC ACID ESTERASE ACTIVITY AND FERULOYL ESTERASE ACTIVITY” (SternEnzym GmbH & Co. KG, priority 2014, dated 2016):
Values joined by “and” are separate entries in the source; they are usually repeats but may differ in a detail not shown here. Identical values can stand only once.

Experiments:
UmChlE [1] = biological target: T1, UmChlE (Mycosarcoma maydis, UniProt A0A060S684, P492L); assay type: biochemical, Ustilago maydis; details: 1 mM (or 1.95 mM) substrate, 1 h, 37 °C, 50 mM Tris pH 7.5; ND = activity not detectable
T1 construct: purification of the chlorogenic acid esterase UmChlE from culture supernatant of U. maydis was accomplished by three complementary separation steps; made in house; host or cells: Ustilago maydis itself (native producer), culture supernatant; Q Sepharose FF, preparative IEF, polyamide column
T1 sequence (A0A060S684 22-585, stated change not applied): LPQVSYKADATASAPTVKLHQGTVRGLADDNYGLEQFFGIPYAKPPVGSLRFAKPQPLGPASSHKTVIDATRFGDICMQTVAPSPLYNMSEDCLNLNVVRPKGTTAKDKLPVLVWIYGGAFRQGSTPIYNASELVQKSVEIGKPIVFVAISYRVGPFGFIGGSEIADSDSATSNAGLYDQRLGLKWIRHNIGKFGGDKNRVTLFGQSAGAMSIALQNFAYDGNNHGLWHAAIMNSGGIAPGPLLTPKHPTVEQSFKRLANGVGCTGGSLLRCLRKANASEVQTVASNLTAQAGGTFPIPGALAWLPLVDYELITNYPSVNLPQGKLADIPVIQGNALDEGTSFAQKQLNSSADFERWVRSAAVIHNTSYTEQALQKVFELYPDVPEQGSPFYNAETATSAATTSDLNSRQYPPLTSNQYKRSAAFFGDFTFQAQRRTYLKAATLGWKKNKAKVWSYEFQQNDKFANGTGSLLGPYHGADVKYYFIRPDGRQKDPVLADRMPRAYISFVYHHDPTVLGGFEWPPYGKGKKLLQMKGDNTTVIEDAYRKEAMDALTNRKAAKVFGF
Description: (§1) Chlorogenic acid esterase activity was determined at 37 °C in 50 mM Tris buffer at pH 7.5 using chlorogenic acid and methyl ferulate as standard substrates, unless otherwise stated. The release of the corresponding free acids was analyzed with HPLC-UV. If appropriate, the hydrolysis of other benzoic and cinnamic acid ester derivatives as well as feruloylated saccharides was measured with the same method. After incubation for one hour the reaction was terminated by doubling the reacting volume with acetonitrile. Samples were centrifuged (15 min, 15.000 × g) before injection to the HPLC (Chromolith Performance RP-18e reverse-phase column, 100 × 4.6 mm, Merck, Darmstadt, Germany). […] Substance elution was detected at 232 nm (benzoic and 3-hydroxybenzoic acid), 254 nm (4-hydroxybenzoic and vanillic acid), 275 nm (cinnamic and gallic acid), 306 nm (p-coumaric acid) and 323 nm (ferulic, caffeic, chlorogenic and sinapic acid) using a Shimadzu UV-Vis detector (SPD-10A VP, Shimadzu Deutschland GmbH, Duisburg, Germany). One unit of enzyme activity was defined as the amount of enzyme releasing one µmοl of free acid per minute under the specified conditions. All measurements were performed at least twice.
Substrate specificity of the UmChlE was determined towards different cinnamate and benzoate esters as well as natural substrates, such as F-A, F-AX and F-AXG, with activity assays as described above. Three mM stock solutions of all substrates were prepared in water.
Purified UmChlE was incubated with 1 mM, or, in a further experiment, 1.95 mM of different substrates for 1 h (at 37 °C, 50 mM Tris buffer pH 7.5). Relative enzyme activities were calculated based on the most preferred substance of the UmChIE: chlorogenic acid which was set to 100 %. Numbers in parentheses are the estimates of the standard error.

RsChlE = biological target: T2, RsChlE (Rhizoctonia solani, UniProt A0A1D0BQV8); assay: Substrate specificity of purified RsChlE; assay type: biochemical; details: 1 mM (or 1.95 mM) substrate, 1 h, 30 °C, 50 mM Bis-Tris pH 6.0
T2 sequence (A0A1D0BQV8 39-563): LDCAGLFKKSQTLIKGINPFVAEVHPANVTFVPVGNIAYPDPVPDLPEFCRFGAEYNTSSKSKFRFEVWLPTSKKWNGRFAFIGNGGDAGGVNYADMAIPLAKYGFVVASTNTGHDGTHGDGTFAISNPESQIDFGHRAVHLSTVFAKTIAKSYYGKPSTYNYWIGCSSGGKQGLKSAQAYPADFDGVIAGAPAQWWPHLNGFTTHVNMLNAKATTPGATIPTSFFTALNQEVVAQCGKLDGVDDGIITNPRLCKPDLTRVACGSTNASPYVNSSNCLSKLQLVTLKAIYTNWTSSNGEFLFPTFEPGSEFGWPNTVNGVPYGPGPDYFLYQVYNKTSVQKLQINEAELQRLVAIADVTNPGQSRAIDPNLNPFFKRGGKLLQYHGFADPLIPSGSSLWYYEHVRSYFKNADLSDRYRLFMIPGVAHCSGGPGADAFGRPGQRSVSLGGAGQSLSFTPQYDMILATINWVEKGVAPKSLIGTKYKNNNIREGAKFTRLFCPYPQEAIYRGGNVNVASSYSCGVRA
Description: as §1
(§2) After purification of the recombinant RsChlE from the culture supernatant of Pichia pastoris with Ni-NTA, the enzyme was biochemically characterized. The experiments were performed like for UmChlE. pH and temperature optimums were analyzed. […] Table 4: Substrate specificity of purified RsChIE.
Purified RsChlE was incubated with 1 mM, or in an alternative experiment, 1.95 mM of different substrates for 1 h (at 30 °C, 50 mM Bis-Tris buffer pH 6.0). […] Numbers in parentheses are the estimates of the standard error.

[2] = tested on: FAE of Penicillium expansum; details: literature (42); cited from earlier work
UmChlE [3] = biological target: T1, UmChlE; assay: Kinetic parameters of UmChlE from initial hydrolysis rates; assay type: biochemical, Ustilago maydis; details: 0.005 - 1 mM substrate, 60 min, 37 °C, pH 7.5
Description: (§3) Km and vmax values were calculated with non-linear regression using SigmaPlot 10.0 (Systat Software Inc., Chicago, USA). Blanks were carried out for all assays using water instead of enzyme. For calculation of kcat the molecular mass was determined using denaturing SDS-PAGE.
Kinetic properties were determined from initial hydrolysis rates for the most preferred substrates chlorogenic acid, MFA and MpCA. […] Consequently, the catalytic efficiency (kca/Km), a good indicator for enzyme efficiency and specificity, was better for chlorogenic acid than for the two synthetic substrates.

[4] = tested on: type B feruloyl esterases; details: literature; cited from earlier work
[5] = biological target: T3, chlorogenic acid hydrolases from A. niger (Aspergillus niger, UniProt A7YN26); details: literature (13, 14); cited from earlier work
T3 sequence (A7YN26 19-512): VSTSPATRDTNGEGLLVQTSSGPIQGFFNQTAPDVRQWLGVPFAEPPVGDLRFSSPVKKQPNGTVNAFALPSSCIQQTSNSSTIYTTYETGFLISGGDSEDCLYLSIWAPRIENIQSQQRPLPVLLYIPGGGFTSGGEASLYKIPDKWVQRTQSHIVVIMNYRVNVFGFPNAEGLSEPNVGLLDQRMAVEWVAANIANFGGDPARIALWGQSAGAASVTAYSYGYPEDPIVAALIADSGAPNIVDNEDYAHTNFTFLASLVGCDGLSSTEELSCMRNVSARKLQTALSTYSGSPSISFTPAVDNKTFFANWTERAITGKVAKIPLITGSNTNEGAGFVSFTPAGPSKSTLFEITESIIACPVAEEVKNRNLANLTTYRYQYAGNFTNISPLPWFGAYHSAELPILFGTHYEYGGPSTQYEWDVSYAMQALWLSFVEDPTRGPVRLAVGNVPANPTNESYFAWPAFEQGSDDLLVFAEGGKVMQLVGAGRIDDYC

[6] = tested on: second published chlorogenic acid hydrolases from A. niger; details: literature (11); cited from earlier work
A. niger FAEB = A. niger FAEB (Aspergillus niger, UniProt Q8WZI8); details: literature (34); cited from earlier work
Chain of A. niger FAEB (Q8WZI8 18-521): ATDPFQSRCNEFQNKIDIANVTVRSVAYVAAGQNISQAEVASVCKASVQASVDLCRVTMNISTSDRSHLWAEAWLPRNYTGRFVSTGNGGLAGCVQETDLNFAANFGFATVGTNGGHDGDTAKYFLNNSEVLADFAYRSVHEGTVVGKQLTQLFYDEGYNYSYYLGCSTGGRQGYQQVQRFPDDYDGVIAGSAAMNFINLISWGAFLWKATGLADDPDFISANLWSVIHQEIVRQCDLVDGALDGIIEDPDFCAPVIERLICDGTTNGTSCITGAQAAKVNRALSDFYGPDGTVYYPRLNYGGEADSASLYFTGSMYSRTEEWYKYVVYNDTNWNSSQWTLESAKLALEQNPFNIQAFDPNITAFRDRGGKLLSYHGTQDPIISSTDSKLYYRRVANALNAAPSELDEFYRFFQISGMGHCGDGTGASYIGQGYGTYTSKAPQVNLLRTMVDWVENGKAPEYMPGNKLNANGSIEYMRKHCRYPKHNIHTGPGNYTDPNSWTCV

[7] = biological target: T4, type B feruloyl esterase from N. crassa (Neurospora crassa, UniProt Q9HGR3); details: literature (35); cited from earlier work
T4 sequence (Q9HGR3 19-292): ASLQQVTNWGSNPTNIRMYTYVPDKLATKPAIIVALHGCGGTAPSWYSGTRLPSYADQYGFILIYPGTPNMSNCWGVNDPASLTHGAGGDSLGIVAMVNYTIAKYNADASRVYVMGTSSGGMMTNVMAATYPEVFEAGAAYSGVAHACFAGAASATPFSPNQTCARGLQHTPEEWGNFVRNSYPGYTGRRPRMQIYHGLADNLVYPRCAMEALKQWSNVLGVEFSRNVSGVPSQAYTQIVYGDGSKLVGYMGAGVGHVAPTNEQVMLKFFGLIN

AoFaeB from A. oryzae = biological target: T5, AoFaeB from A. oryzae (Aspergillus oryzae, UniProt Q2UP89); details: literature (19); cited from earlier work
T5 sequence (Q2UP89 19-540): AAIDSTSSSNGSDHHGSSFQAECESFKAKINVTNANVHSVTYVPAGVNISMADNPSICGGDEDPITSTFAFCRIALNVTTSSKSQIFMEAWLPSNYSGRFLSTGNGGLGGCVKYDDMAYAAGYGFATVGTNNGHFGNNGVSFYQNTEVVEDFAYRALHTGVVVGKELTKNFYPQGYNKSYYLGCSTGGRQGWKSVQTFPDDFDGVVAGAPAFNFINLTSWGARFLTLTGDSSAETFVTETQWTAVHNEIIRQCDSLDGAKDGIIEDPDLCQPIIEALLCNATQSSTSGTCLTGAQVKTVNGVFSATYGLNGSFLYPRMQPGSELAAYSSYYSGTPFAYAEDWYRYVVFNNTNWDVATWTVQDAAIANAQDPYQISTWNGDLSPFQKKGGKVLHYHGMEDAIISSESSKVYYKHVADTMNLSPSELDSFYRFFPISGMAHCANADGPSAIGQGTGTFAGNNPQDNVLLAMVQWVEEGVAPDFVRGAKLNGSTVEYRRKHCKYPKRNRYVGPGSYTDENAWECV

UmChlE [8] = biological target: T1, UmChlE; assay type: biochemical, Ustilago maydis; details: buffer (Tris pH 7.5) / organic solvent 1:1 (v/v), 0.7 mM methyl ferulate, 1 h, 37 °C, 900 rpm; without solvent = 100 %; standard error in parentheses; ND = activity not detectable
Description: as §1, with “twice. […]” for “twice.”

[9] = substrate: COC(=O)/C=C/c1ccc(O)cc1; assay: purified protein, by the assay type
[10] = substrate: COC(=O)/C=C/c1ccc(O)c(O)c1; assay: Kinetic analysis of RsChlE; assay type: biochemical, Rhizoctonia solani
Description: as §3, §2
(§4) In the following, the kinetic constants were determined to decide if the enzyme has mainly chlorogenic acid esterase or feruloyl esterase activity. Table 5: kinetic analysis of RsChlE

[11] = substrate: COc1cc(/C=C/C(=O)OC[C@@H]2OC(O)[C@H](O[C@@H]3OC[C@@H](O)[C@H](O)[C@H]3O)[C@H]2O)ccc1O; assay: Kinetic analysis of RsChlE; assay type: biochemical, Rhizoctonia solani
Description: as §3, §2, §4

[12] = substrate: O=C(/C=C/c1ccc(O)c(O)c1)O[C@@H]1C[C@](O)(C(=O)O)C[C@@H](O)[C@H]1O; assay: Kinetic analysis of RsChlE; assay type: biochemical, Rhizoctonia solani
Description: as §3, §2, §4

Molecule: COc1cc(/C=C/C(=O)OC[C@@H]2OC(O)[C@H](O[C@@H]3OC[C@@H](O)[C@H](O)[C@H]3O)[C@H]2O)ccc1O (stereo partly drawn) [F-AX, β-D-xylopyranosyl-(1→2)-5-O-trans-feruloyl-L-arabinofuranose]
- Specific esterase activity (UmChlE [1]): 1.6 U mg^-1 and 1.63 U mg^-1
- Specific activity (RsChlE): 4.97 U/mg
- specific activities [2]: 5.3 U mg^-1

Molecule: COC(=O)/C=C/c1ccc(O)cc1 [methyl p-coumarate]
- Specific esterase activity (UmChlE [1]): 1.43 U mg^-1
- kcat (UmChlE [3]): 0.49 s⁻¹
- Specific activity (RsChlE): 6.19 U/mg
- Km [4]: 20 µM

Molecule: COC(=O)/C=C/c1ccc(O)c(OC)c1 [methyl ferulate]
- Specific esterase activity (UmChlE [1]): 1.27 U mg^-1
- kcat (UmChlE [3]): 0.38 s⁻¹
- Specific activity (RsChlE): 3.19 U/mg
- specific activities [2]: 14.4 U mg^-1

Molecule: O=C(/C=C/c1ccc(O)c(O)c1)O[C@@H]1C[C@](O)(C(=O)O)C[C@@H](O)[C@H]1O [chlorogenic acid]
- Specific esterase activity (UmChlE [1]): 2.8 U mg^-1 and 2.76 U mg^-1
- kcat (UmChlE [3]): 0.51 s⁻¹
- Specific activity (RsChlE): 5.15 U/mg
- Km [5]: 6.5 to 10 µM
- Km [6]: 700 µM
- Km (A. niger FAEB): 245 µM
- Km [7]: 180 µM
- Km (AoFaeB from A. oryzae): 630 µM

Molecule: CN(C)C=O [DMF]
- Relative esterase activity (UmChlE [8]): 1 (0.76) %

B1: RsChlE (Rhizoctonia solani) (protein)
chain: MGCDRPRQALHSLQEFTVMFSKWLPISAILLYGASAKALDCAGLFKKSQTLIKGINPFVAEVHPANVTFVPVGNIAYPDPVPDLPEFCRFGAEYNTSSKSKFRFEVWLPTSKKWNGRFAFIGNGGDAGGVNYADMAIPLAKYGFVVASTNTGHDGTHGDGTFAISNPESQIDFGHRAVHLSTVFAKTIAKSYYGKPSTYNYWIGCSSGGKQGLKSAQAYPADFDGVIAGAPAQWWPHLNGFTTHVNMLNAKATTPGATIPTSFFTALNQEVVAQCGKLDGVDDGIITNPRLCKPDLTRVACGSTNASPYVNSSNCLSKLQLVTLKAIYTNWTSSNGEFLFPTFEPGSEFGWPNTVNGVPYGPGPDYFLYQVYNKTSVQKLQINEAELQRLVAIADVTNPGQSRAIDPNLNPFFKRGGKLLQYHGFADPLIPSGSSLWYYEHVRSYFKNADLSDRYRLFMIPGVAHCSGGPGADAFGRPGQRSVSLGGAGQSLSFTPQYDMILATINWVEKGVAPKSLIGTKYKNNNIREGAKFTRLFCPYPQEAIYRGGNVNVASSYSCGVRA
- Km [9]: 35,8 µM
- Vmax [9]: 26,5 U/mg
- kcat [9]: 33,13 s^-1
- kcat/Km [9]: 925,28 mM * s^-1
- Km [10]: 28,5 µM
- Vmax [10]: 16 U/mg
- kcat [10]: 20,00 s^-1
- Km [11]: 38,4 µM
- Vmax [11]: 23,3 U/mg
- kcat [11]: 29,13 s^-1
- Km [12]: 18,3 µM
- Vmax [12]: 23,4 U/mg
- kcat [12]: 29,25 s^-1
